Experimental data: PubChem BioAssay (NCI)
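Tested at 5 concentrations; 48 h exposure; 96-well plates; endpoints linearly interpolated, else capped at highest concentration. The concentration for full growth arrest is given as TGI.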

Experiments:
Test in all cases: inhibition of tumour cell growth, NCI panel, 48 h
SNB-75 CNS = system: SNB-75 CNS
SN12C renal = system: SN12C renal
SF-295 CNS = system: SF-295 CNS
DMS 114 small cell lung = system: DMS 114 small cell lung
TK-10 renal = system: TK-10 renal
CCRF-CEM leukemia = system: CCRF-CEM leukemia
HCT-15 colon = system: HCT-15 colon
DMS 273 small cell lung = system: DMS 273 small cell lung
SNB-19 CNS = system: SNB-19 CNS
HL-60(TB) leukemia = system: HL-60(TB) leukemia
HCC-2998 colon = system: HCC-2998 colon
MOLT-4 leukemia = system: MOLT-4 leukemia
A498 renal = system: A498 renal
HOP-62 NSCLC = system: HOP-62 NSCLC
RPMI-8226 leukemia = system: RPMI-8226 leukemia
SR leukemia = system: SR leukemia
SK-MEL-28 melanoma = system: SK-MEL-28 melanoma
OVCAR-4 ovarian = system: OVCAR-4 ovarian
M14 melanoma = system: M14 melanoma
SNB-78 CNS = system: SNB-78 CNS
DLD-1 colon = system: DLD-1 colon
ACHN renal = system: ACHN renal
HCT-116 colon = system: HCT-116 colon
RXF 393 renal = system: RXF 393 renal
SW-620 colon = system: SW-620 colon
NCI-H23 lung = system: NCI-H23 lung
A549 NSCLC = system: A549 NSCLC
786-0 renal = system: 786-0 renal
OVCAR-5 ovarian = system: OVCAR-5 ovarian
NCI-H522 lung = system: NCI-H522 lung
SK-MEL-5 melanoma = system: SK-MEL-5 melanoma
KM20L2 colon = system: KM20L2 colon
SF-268 CNS = system: SF-268 CNS
MALME-3M melanoma = system: MALME-3M melanoma
UO-31 renal = system: UO-31 renal
OVCAR-8 ovarian = system: OVCAR-8 ovarian
COLO 205 colon = system: COLO 205 colon
NCI-H460 lung = system: NCI-H460 lung
OVCAR-3 ovarian = system: OVCAR-3 ovarian
SK-MEL-2 melanoma = system: SK-MEL-2 melanoma
SF-539 CNS = system: SF-539 CNS
U251 CNS = system: U251 CNS
UACC-62 melanoma = system: UACC-62 melanoma
SK-OV-3 ovarian = system: SK-OV-3 ovarian
CAKI-1 renal = system: CAKI-1 renal
UACC-257 melanoma = system: UACC-257 melanoma
K-562 leukemia = system: K-562 leukemia
HOP-92 NSCLC = system: HOP-92 NSCLC
HT29 colon = system: HT29 colon
M19-MEL melanoma = system: M19-MEL melanoma
HOP-18 NSCLC = system: HOP-18 NSCLC
KM12 colon = system: KM12 colon
EKVX NSCLC = system: EKVX NSCLC
LOX IMVI melanoma = system: LOX IMVI melanoma
IGROV1 ovarian = system: IGROV1 ovarian
NCI/ADR-RES ovarian = system: NCI/ADR-RES ovarian
MDA-MB-435 = system: MDA-MB-435
MCF7 breast = system: MCF7 breast
MDA-MB-231 breast = system: MDA-MB-231 breast
MDA-N = system: MDA-N
HS 578T breast = system: HS 578T breast
NCI-H226 lung = system: NCI-H226 lung
BT-549 breast = system: BT-549 breast
PC-3 prostate = system: PC-3 prostate
DU-145 prostate = system: DU-145 prostate
T-47D breast = system: T-47D breast

O=[N+]([O-])c1cc(/C=N/NS(=O)(=O)c2ccc(F)cc2)c(O)c([N+](=O)[O-])c1
TGI (SNB-75 CNS): 76.9 µM
TGI (SN12C renal): > 100 µM
TGI (SF-295 CNS): > 100 µM
TGI (DMS 114 small cell lung): > 100 µM
TGI (TK-10 renal): > 100 µM
TGI (CCRF-CEM leukemia): > 100 µM
TGI (HCT-15 colon): 67.4 µM
TGI (DMS 273 small cell lung): 98.9 µM
TGI (SNB-19 CNS): > 100 µM
TGI (HL-60(TB) leukemia): 67.3 µM
TGI (HCC-2998 colon): > 100 µM
TGI (MOLT-4 leukemia): 88.6 µM
TGI (A498 renal): 78.1 µM
TGI (HOP-62 NSCLC): > 100 µM
TGI (RPMI-8226 leukemia): > 100 µM
TGI (SR leukemia): 41.2 µM
TGI (SK-MEL-28 melanoma): > 100 µM
TGI (OVCAR-4 ovarian): > 100 µM
TGI (M14 melanoma): 52.2 µM
TGI (SNB-78 CNS): > 100 µM
TGI (DLD-1 colon): > 100 µM
TGI (ACHN renal): > 100 µM
TGI (HCT-116 colon): > 100 µM
TGI (RXF 393 renal): 84.9 µM
TGI (SW-620 colon): > 100 µM
TGI (NCI-H23 lung): 60.1 µM
TGI (A549 NSCLC): > 100 µM
TGI (786-0 renal): > 100 µM
TGI (OVCAR-5 ovarian): > 100 µM
TGI (NCI-H522 lung): 46.3 µM
TGI (SK-MEL-5 melanoma): 72 µM
TGI (KM20L2 colon): 59.3 µM
TGI (SF-268 CNS): > 100 µM
TGI (MALME-3M melanoma): > 100 µM
TGI (UO-31 renal): > 100 µM
TGI (OVCAR-8 ovarian): 57.4 µM
TGI (COLO 205 colon): 34.5 µM
TGI (NCI-H460 lung): 84 µM
TGI (OVCAR-3 ovarian): 68 µM
TGI (SK-MEL-2 melanoma): > 100 µM
TGI (SF-539 CNS): 43.9 µM
TGI (U251 CNS): 44.7 µM
TGI (UACC-62 melanoma): > 100 µM
TGI (SK-OV-3 ovarian): 78.3 µM
TGI (CAKI-1 renal): > 100 µM
TGI (UACC-257 melanoma): > 100 µM
TGI (K-562 leukemia): > 100 µM
TGI (HOP-92 NSCLC): > 100 µM
TGI (HT29 colon): 64.6 µM
TGI (M19-MEL melanoma): > 100 µM
TGI (HOP-18 NSCLC): > 100 µM
TGI (KM12 colon): 50 µM
TGI (EKVX NSCLC): > 100 µM
TGI (LOX IMVI melanoma): > 100 µM
TGI (IGROV1 ovarian): > 100 µM

CN(C)/C=N/S(=O)(=O)c1nn2c(C=O)c(-c3ccc([N+](=O)[O-])cc3)nc2s1
TGI (SNB-75 CNS): > 86.9 µM
TGI (SN12C renal): 22.6 µM
TGI (SF-295 CNS): > 100 µM
TGI (TK-10 renal): 21.6 µM
TGI (CCRF-CEM leukemia): 19.2 µM
TGI (HCT-15 colon): > 49.6 µM
TGI (NCI/ADR-RES ovarian): > 100 µM
TGI (MDA-MB-435): 50.4 µM
TGI (MCF7 breast): > 42 µM
TGI (SNB-19 CNS): > 100 µM
TGI (HL-60(TB) leukemia): 3.85 µM
TGI (HCC-2998 colon): > 43.4 µM
TGI (MDA-MB-231 breast): > 81.5 µM
TGI (MOLT-4 leukemia): > 21.8 µM
TGI (MDA-N): 17 µM
TGI (A498 renal): > 100 µM
TGI (HOP-62 NSCLC): > 81.9 µM
TGI (HS 578T breast): > 71.8 µM
TGI (NCI-H226 lung): > 95.1 µM
TGI (RPMI-8226 leukemia): > 60.9 µM
TGI (SR leukemia): > 43.3 µM
TGI (SK-MEL-28 melanoma): 18.3 µM
TGI (OVCAR-4 ovarian): 39.7 µM
TGI (M14 melanoma): > 32.4 µM
TGI (ACHN renal): 10.5 µM
TGI (BT-549 breast): 25.5 µM
TGI (HCT-116 colon): 6.51 µM
TGI (RXF 393 renal): > 67 µM
TGI (SW-620 colon): > 34 µM
TGI (NCI-H23 lung): 49.7 µM
TGI (A549 NSCLC): > 100 µM
TGI (786-0 renal): 9.03 µM
TGI (OVCAR-5 ovarian): > 79.6 µM
TGI (NCI-H522 lung): 3.86 µM
TGI (PC-3 prostate): > 51.9 µM
TGI (SK-MEL-5 melanoma): 17.4 µM
TGI (DU-145 prostate): > 41.6 µM
TGI (SF-268 CNS): > 72.9 µM
TGI (MALME-3M melanoma): 8.72 µM
TGI (UO-31 renal): 13.2 µM
TGI (OVCAR-8 ovarian): 47.4 µM
TGI (COLO 205 colon): > 34.3 µM
TGI (NCI-H460 lung): > 85.9 µM
TGI (OVCAR-3 ovarian): 18 µM
TGI (SK-MEL-2 melanoma): 51.3 µM
TGI (SF-539 CNS): 71.4 µM
TGI (U251 CNS): 41.6 µM
TGI (UACC-62 melanoma): 23 µM
TGI (SK-OV-3 ovarian): > 100 µM
TGI (CAKI-1 renal): 7.13 µM
TGI (T-47D breast): > 45.4 µM
TGI (UACC-257 melanoma): 40.5 µM
TGI (K-562 leukemia): > 27.3 µM
TGI (HOP-92 NSCLC): 53.5 µM
TGI (HT29 colon): 4.38 µM
TGI (KM12 colon): 42.3 µM
TGI (EKVX NSCLC): 58.7 µM
TGI (LOX IMVI melanoma): 27 µM
TGI (IGROV1 ovarian): 17.6 µM
